We go through two compounds from US4331666A, “3-[(8-Carboxy-6-tetraz olo[1,5-b]pyridazinyl)-thiomethyl]-7-[2-(2-amino-4-thiazolyl)-2-methoxyim ino-acetamido]-3-cephem-4-carboxylic acid” (Farmitalia Carlo Erba S.p.A., priority 1979, dated 1982).

Like-named read-outs stand apart in the source and are kept apart here.

Data set [1] has as its system 10 strains of Pseudomonas aeruginosa, 4 strains of Proteus vulgaris and 4 strains of Proteus morganii. Kind of data set: test on a series of strains of Pseudomonas aeruginosa, Proteus vulgaris and Proteus morganii. The class given is cell-based. Conditions: 10 strains Pseudomonas aeruginosa, 4 strains Proteus vulgaris, 4 strains Proteus morganii.
The next data set concerns streptococci. The class given is cell-based.
The next data set concerns Gram-negative bacteria. Kind of data set: antibacterial activity against most Gram-negative bacteria (compared with Cefazolin and Cefuroxime). It is filed as cell-based.
The subject of data set [2] is Pseudomonas aeruginosa G. Kind of data set: in vitro activity against Pseudomonas aeruginosa G. It is filed as cell-based.
Data set [3] can be described thus: plasma half-life in the rat after intravenous injection. To be noted: in vivo.
A short description of data set [4]: plasma half-life in the mouse after intravenous injection. To be noted: in vivo.
Data set [5] relates to Bacteroides fragilis VPL 9032. Kind of data set: in vitro activity against Bacteroides fragilis VPL 9032. The class given is cell-based.
Data set [6] deals with mice infected with Escherichia coli G, Klebsiella pneumoniae ATCC 10031, Proteus mirabilis ATCC 9921, Escherichia coli Tem., Haemophilus influenzae Salmonella …. Kind of data set: in vivo activity in infected mice. To be noted: in words.
The nature of data set [7]: approximate acute toxicity (LD50) in the mouse. To be noted: in vivo, single intravenous administrations of increasing doses, measured on the seventh day. The text has this:
The toxicity of the compounds of the invention is quite negligible and therefore they can be safely used in therapy. […] Analogous activity and toxicity data have been found for the other compounds of the invention.

Turning to `CON=C(C(=O)NC1C(=O)N2C(C(=O)O)=C(CSc3cc(N)c4nnnn4n3)CSC12)c1csc(N)n1` (stereo not drawn) [FCE 20127, 3-[(8-amino-6-tetrazolo[1,5-b]pyridazinyl)-thiomethyl]-7-[2-(2-amino-4-thiazolyl)-2-methoxyiminoacetamido]-3-cephem-4-carboxylic acid (syn-isomer)], the “activity compared with Cefazolin and Cefuroxime” value in data set [1] was “several times more active than Cefazolin and Cefuroxime”. Moreover, the “times more active than Cefazolin against streptococci” value with streptococci (ratio vs Cefazolin, streptococci) is “about 24 times”. Moreover, the “times more active than Cefazolin and Cefuroxime against most Gram-negative bacteria” value with Gram-negative bacteria (ratio vs Cefazolin and Cefuroxime) was “about 30 times”.
As for `CON=C(C(=O)NC1C(=O)N2C(C(=O)O)=C(CSc3cc(C(=O)O)c4nnnn4n3)CSC12)c1csc(N)n1` (stereo not drawn) [FCE 20485, 3-[(8-carboxy-6-tetrazolo[1,5-b]pyridazinyl)-thiomethyl]-7-[2-(2-amino-4-thiazolyl)-2-methoxyiminoacetamido]-3-cephem-4-carboxylic acid (syn-isomer)], the in vitro activity result in data set [2] and in data set [5] was “significant in vitro activity” each time. Further, the half-life (commonly the time in which the quantity being followed falls by half) in data set [3] is ~1.67 h; in data set [4] it was ~1.5 h. Also, the “times more active than Cefazolin against streptococci” value in the data set on streptococci is “about 5 times”. Further, the “activity in vivo tests” value in data set [6] is “high activity”. The “times more active than Cefazolin against most Gram-negative bacteria” value in the data set on Gram-negative bacteria (ratio vs Cefazolin) is recorded as “about 32 times”. The “times more active than Cefuroxime against most Gram-negative bacteria” value with Gram-negative bacteria (ratio vs Cefuroxime) is ~40 times. Moreover, in data set [7], the LD50 (in general, the dose at which mortality reaches 50%) at 168 h is > 2000 mg/kg.
